Laboratory results reported in patent publication US20250243407A1, “LIQUID CRYSTAL COMPOSITION, OPTICALLY ANISOTROPIC FILM, OPTICAL FILM, POLARIZING PLATE, IMAGE DISPLAY APPARATUS, AND POLYMERIZABLE COMPOUND” (FUJIFILM Corporation, priority 2022, published 2025).

How the values were obtained:
[1] = Liquid crystallinity: phase transition temperature measured using a polarization microscope; assay type: physicochemical
Procedure: A phase transition temperature of the prepared liquid crystal composition was measured using a polarization microscope.

[2] = Solubility: presence or absence of precipitation over time in cyclopentanone/methyl ethyl ketone; assay type: physicochemical; conditions: 50 mg, cyclopentanone/methyl ethyl ketone 3/1 by weight, solid content 30 wt %, dissolved at 60° C., cooled to room temperature (25° C.), visual precipitation over time
Procedure: 50 mg of each of the liquid crystal compositions prepared in a 1.5 mL sample bottle was weighed, and a solvent (mixture of cyclopentanone/methyl ethyl ketone at a weight ratio of 3/1) was added thereto until the solid content was 30 wt % ([…]).
Next, the mixture was heated to 60° C. and stirred to be dissolved, cooled to room temperature (25° C.), and the presence or absence of precipitation was visually confirmed over time after cooling and evaluated according to the following standard.
C: precipitation occurred within 24 hours at room temperature.

Compound: C=CC(=O)OCC(C)(C)COC(=O)CCC(=O)OCCc1ccc(OC(=O)C2CCC(C(=O)Oc3c(C(C)(C)C)cc(OC(=O)C4CCC(C(=O)Oc5cc(C(C)(C)C)c(OC(=O)C6CCC(C(=O)Oc7ccc(CCOC(=O)CCC(=O)OCC(C)(C)COC(=O)C=C)cc7)CC6)c6c5SC(=C(C#N)C#N)S6)CC4)c4c3SC(=C(C#N)C#N)S4)CC2)cc1 (centres unmarked) [Comparative Example 1]
- Liquid crystallinity: phase transition temperature between isotropic liquid (Iso) and crystal (Cr) [1]: Iso 178 Cr ° C.
- Solubility [2]: C (precipitation occurred within 24 hours at room temperature)
